Reference: BindingDB's records for doi:10.1016/j.bmc.2014.05.025 (University of California, 2014)

Biological target: T1, Polyunsaturated fatty acid lipoxygenase ALOX12 (Homo sapiens, UniProt P18054)
T1 sequence (P18054 whole entry): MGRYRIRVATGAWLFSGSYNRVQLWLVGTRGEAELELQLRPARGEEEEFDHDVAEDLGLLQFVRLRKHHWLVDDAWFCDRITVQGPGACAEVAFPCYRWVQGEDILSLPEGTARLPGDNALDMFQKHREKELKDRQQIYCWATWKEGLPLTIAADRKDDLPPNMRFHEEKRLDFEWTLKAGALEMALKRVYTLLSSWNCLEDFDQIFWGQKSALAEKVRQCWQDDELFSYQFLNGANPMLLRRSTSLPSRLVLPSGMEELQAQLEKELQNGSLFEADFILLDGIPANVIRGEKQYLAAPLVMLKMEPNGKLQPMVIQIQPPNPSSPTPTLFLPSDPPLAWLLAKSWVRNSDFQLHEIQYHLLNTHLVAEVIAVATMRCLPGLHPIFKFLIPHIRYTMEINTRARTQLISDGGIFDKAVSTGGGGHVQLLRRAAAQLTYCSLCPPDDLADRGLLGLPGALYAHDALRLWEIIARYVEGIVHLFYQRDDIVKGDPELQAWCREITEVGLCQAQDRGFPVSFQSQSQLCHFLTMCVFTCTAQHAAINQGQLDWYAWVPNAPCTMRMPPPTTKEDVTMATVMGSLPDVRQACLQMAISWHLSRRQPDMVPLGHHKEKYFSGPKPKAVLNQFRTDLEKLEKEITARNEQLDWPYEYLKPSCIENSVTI
Assay: Mixed type inhibition of human platelet 12-lipoxygenase assessed as equilibrium inhibitor constant of dissociation from enzyme by measuring 12-HpETE formation in presence of 0.01% Triton-X-100 by Dixon plot based steady-state inhibition kinetics assay

**Q.** Which Ki does the source give for `CCCCCC(=O)C=CC=CC/C=C\C/C=C\CCCC(=O)O` [(5Z,8Z,11Z,13E)-15-oxoicosa-5,8,11,13-tetraenoic acid] here?
**A.** The Ki was 87 nM.
